Experimental data published in patent US7026339B2, “Inhibitors of HCV NS5B polymerase” (priority 2003, dated 2006).

System: HuH-7 replicon cells 5–15 and 9–13 (HCV replication)
Experiment: Inhibition of viral replication in HuH-7 replicon cells (HCV RNA / GAPDH RNA by multiplex RT-PCR)
Format: cell-based
Settings: Hepatitis C virus, 72 h; inhibiting 50% of replication; HuH-7 replicon cells, 3 days; read-out: IC50
Method in brief: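 Replicon cells seeded at 7×10^3 cells/well, grown 24 h, then exposed 3 days at 37 °C to compound at final 100 μM–1 μM (1% DMSO). Multiplex TaqMan RT-PCR on total RNA quantified HCV 5′-UTR and GAPDH RNA against a standard curve; HCV/GAPDH ratio reported as percent of untreated control.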

Cc1ccccc1C(=O)N/N=C/c1ccccc1OS(=O)(=O)c1ccc(C(F)(F)F)cc1 [Compound 100, 2-{(E)-[2-(2-methylbenzoyl)hydrazono]methyl}phenyl4-(trifluoromethyl)benzenesulfonate]
IC50: < 5 µM

O=C(N/N=C/c1ccccc1OS(=O)(=O)c1ccc(C(F)(F)F)cc1)C1CCCCC1 [Compound 101, 2-{(E)-[2-(cyclohexylcarbonyl)hydrazono]methyl}phenyl 4-(trifluoromethyl)benzenesulfonate]
IC50: 5 to 50 µM

O=C(N/N=C/c1ccccc1OS(=O)(=O)c1ccc(C(F)(F)F)cc1)c1c(F)cccc1F [Compound 102, 2-{(E)-[2-(2,6-difluorobenzoyl)hydrazono]methyl}phenyl4-(trifluoromethyl)benzenesulfonate]
IC50: < 5 µM

O=C(N/N=C/c1ccccc1OS(=O)(=O)c1ccc(C(F)(F)F)cc1)c1c(F)cccc1C(F)(F)F [Compound 103, 2-((E)-{2-[2-fluoro-6-(trifluoromethyl)benzoyl]hydrazono}methyl)-phenyl 4-(trifluoromethyl)benzenesulfonate]
IC50: < 5 µM

O=C(N/N=C/c1ccccc1OS(=O)(=O)c1ccc(C(F)(F)F)cc1)c1ccccc1C(F)(F)F [Compound 104, 2-((E)-{2-[2-(trifluoromethyl)benzoyl]hydrazono}methyl)-phenyl 4-(trifluoromethyl)benzenesulfonate]
IC50: < 5 µM

CCc1ccc(S(=O)(=O)N/N=C/c2ccccc2OS(=O)(=O)c2ccc(C(F)(F)F)cc2)cc1 [Compound 105, 2-((E)-{2-[(4-ethylphenyl)sulfonyl]hydrazono}methyl)-phenyl 4-(trifluoromethyl)benzenesulfonate]
IC50: 5 to 50 µM

Cn1cnc(CC(=O)N/N=C/c2ccccc2OS(=O)(=O)c2ccc(C(F)(F)F)cc2)c1 [Compound 106, 2-((E)-{2-[2-(1-methyl-1H-imidazol-4-yl)acetyl]hydrazono}methyl)phenyl 4-(trifluoromethyl)benzenesulfonate]
IC50: < 5 µM

O=C(Cn1c(Br)nc(Cl)c1Cl)N/N=C/c1ccccc1OS(=O)(=O)c1ccc(C(F)(F)F)cc1 [Compound 107, 2-((E)-{2-[2-(2-bromo-4,5-dichloro-1H-imidazol-1-yl)acetyl]hydrazono}methyl)phenyl 4-(trifluoromethyl)benzenesulfonate]
IC50: > 50 µM

O=C(Cc1ccccc1)N/N=C/c1ccccc1OS(=O)(=O)c1ccccc1 [Compound 108, 2-{(E)-[2-(2-phenylacetyl)hydrazono]methyl}phenylbenzenesulfonate]
IC50: > 50 µM

O=C(Cc1ccccc1)N/N=C/c1ccccc1OS(=O)(=O)c1cccs1 [Compound 109, 2-{(E)-[2-(2-phenylacetyl)hydrazono]methyl}phenylthiophene-2-sulfonate]
IC50: > 50 µM

Cc1ccccc1S(=O)(=O)Oc1ccccc1/C=N/NC(=O)Cc1ccccc1 [Compound 110, 2-{(E)-[2-(2-phenylacetyl)hydrazono]methyl}phenyl 2-methylbenzenesulfonate]
IC50: > 50 µM

Cc1cccc(S(=O)(=O)Oc2ccccc2/C=N/NC(=O)Cc2ccccc2)c1 [Compound 111, 2-{(E)-[2-(2-phenylacetyl)hydrazono]methyl}phenyl 3-methylbenzenesulfonate]
IC50: > 50 µM

O=C(Cc1ccccc1)N/N=C/c1ccccc1OS(=O)(=O)c1ccccc1F [Compound 112, 2-{(E)-[2-(2-phenylacetyl)hydrazono]methyl}phenyl 2-fluorobenzenesulfonate]
IC50: > 50 µM

O=C(Cc1ccccc1)N/N=C/c1ccccc1OS(=O)(=O)c1cccc(F)c1 [Compound 113, 2-{(E)-[2-(2-phenylacetyl)hydrazono]methyl}phenyl 3-fluorobenzenesulfonate]
IC50: > 50 µM

N#Cc1cccc(S(=O)(=O)Oc2ccccc2/C=N/NC(=O)Cc2ccccc2)c1 [Compound 114, 2-{(E)-[2-(2-phenylacetyl)hydrazono]methyl}phenyl 3-cyanobenzenesulfonate]
IC50: > 50 µM

N#Cc1ccc(S(=O)(=O)Oc2ccccc2/C=N/NC(=O)Cc2ccccc2)cc1 [Compound 115, 2-{(E)-[2-(2-phenylacetyl)hydrazono]methyl}phenyl 4-cyanobenzenesulfonate]
IC50: 5 to 50 µM

O=C(Cc1ccccc1)N/N=C/c1ccccc1OS(=O)(=O)c1cccc(Cl)c1 [Compound 116, 2-{(E)-[2-(2-phenylacetyl)hydrazono]methyl}phenyl 3-chlorobenzenesulfonate]
IC50: > 50 µM

O=C(Cc1ccccc1)N/N=C/c1ccccc1OS(=O)(=O)c1ccc(Cl)cc1 [Compound 117, 2-{(E)-[2-(2-phenylacetyl)hydrazono]methyl}phenyl 4-chlorobenzenesulfonate]
IC50: < 5 µM

O=C(Cc1ccccc1)N/N=C/c1ccccc1OS(=O)(=O)c1ccc(F)c(F)c1 [Compound 118, 2-{(E)-[2-(2-phenylacetyl)hydrazono]methyl}phenyl3,4-difluorobenzenesulfonate]
IC50: 5 to 50 µM

O=C(Cc1ccccc1)N/N=C/c1ccccc1OS(=O)(=O)c1ccc2ccccc2c1 [Compound 119, 2-{(E)-[2-(2-phenylacetyl)hydrazono]methyl}phenylnaphthalene-2-sulfonate]
IC50: < 5 µM

O=C(Cc1ccccc1)N/N=C/c1ccccc1OS(=O)(=O)c1ccc(F)c(Cl)c1 [Compound 120, 2-{(E)-[2-(2-phenylacetyl)hydrazono]methyl}phenyl 3-chloro-4-fluorobenzenesulfonate]
IC50: 5 to 50 µM

CC(C)(C)c1ccc(S(=O)(=O)Oc2ccccc2/C=N/NC(=O)Cc2ccccc2)cc1 [Compound 121, 2-{(E)-[2-(2-phenylacetyl)hydrazono]methyl}phenyl 4-tert-butylbenzenesulfonate]
IC50: < 5 µM

O=C(Cc1ccccc1)N/N=C/c1ccccc1OS(=O)(=O)c1cccc(C(F)(F)F)c1 [Compound 122, 2-{(E)-[2-(2-phenylacetyl)hydrazono]methyl}phenyl 3-(trifluoromethyl)benzenesulfonate]
IC50: 5 to 50 µM

O=C(Cc1ccccc1)N/N=C/c1ccccc1OS(=O)(=O)c1ccc(C(F)(F)F)cc1 [Compound 123, 2-{(E)-[2-(2-phenylacetyl)hydrazono]methyl}phenyl 4-(trifluoromethyl)benzenesulfonate]
IC50: < 5 µM

O=C(Cc1ccccc1)N/N=C/c1ccccc1OS(=O)(=O)c1ccc(Cl)cc1Cl [Compound 124, 2-{(E)-[2-(2-phenylacetyl)hydrazono]methyl}phenyl2,4-dichlorobenzenesulfonate]
IC50: < 5 µM

O=C(Cc1ccccc1)N/N=C/c1ccccc1OS(=O)(=O)c1ccc(Cl)c(Cl)c1 [Compound 125, 2-{(E)-[2-(2-phenylacetyl)hydrazono]methyl}phenyl3,4-dichlorobenzenesulfonate]
IC50: < 5 µM

O=C(Cc1ccccc1)N/N=C/c1ccccc1OS(=O)(=O)c1cc(Cl)cc(Cl)c1 [Compound 126, 2-{(E)-[2-(2-phenylacetyl)hydrazono]methyl}phenyl3,5-dichlorobenzenesulfonate]
IC50: 5 to 50 µM

O=C(Cc1ccccc1)N/N=C/c1ccccc1OS(=O)(=O)c1cccc(Br)c1 [Compound 127, 2-{(E)-[2-(2-phenylacetyl)hydrazono]methyl}phenyl 3-bromobenzenesulfonate]
IC50: 5 to 50 µM

O=C(Cc1ccccc1)N/N=C/c1ccccc1OS(=O)(=O)c1ccc(Br)cc1 [Compound 128, 2-{(E)-[2-(2-phenylacetyl)hydrazono]methyl}phenyl 4-bromobenzenesulfonate]
IC50: < 5 µM
